Measurements from patent US10961492B2, “Microfluidic devices and related methods for generation and/or culture and/or maturation of three-dimensional cells and/or tissue constructs” (POLITECNICO DI MILANO, priority 2015, dated 2021).

Test system: mature cardiac construct
Experiment: drug screening on mature cardiac construct in the microfluidic device (spontaneous contraction frequency)
Type: cell-based, neonatal rats
Settings: increasing concentrations 1 and 2 μg/ml in culture medium injected in sequence; evaluated 60 seconds after injection; 37° C.; with respect to control construct without drug
Method: The cells of interest were isolated using the following process. The cardiac tissue removed from the ventricles of neonatal rats was digested in trypsin (0.6 mg/ml, in a Hank balanced saline solution, HBSS) for 18 hours. The digestion was then blocked by adding 10 ml of culture medium (Dulbecco Modified Eagle's Medium, DMEM) containing: 10% of fetal bovine serum, 1% of penicillin-streptomycin, 1% of HEPES and 1% of L-Glutamine. The isolation of the cells from the matrix was then obtained with five passages in a solution of collagenase (1 mg/ml in HBSS) at 37° C. for 5 minutes. The cell suspension thus obtained was centrifuged at 700 rpm for 10 minutes, re-suspended in 25 ml of culture medium and seeded in a culture flask to isolate the fraction of cardiomyocytes (non-adherent).
For seeding inside the device, the cardiac cells thus isolated were diluted in a solution of fibrin gel at a cell concentration of 1×10^5 cells/μl. More specifically, for the seeding of 6 devices, 20 μl of fibrin gel were prepared by mixing 20×10^5 cells (estimated volume of 8.2 μl), 4 μl of calcium chloride, 4 μl of fibrinogen (20 mg/ml in sodium chloride), 2.8 μl of aprotinin (16 TIU/ml in distilled water) and 1 μl of thrombin (5 U/ml in calcium chloride). […]

## CCN(CC)CC(=O)Nc1c(C)cccc1C [lidocaine]
  spontaneous contraction frequency: decrease in the contraction frequency
